{
  "source": "patent US5034544A",
  "about": "“Antiviral 2,3-bis-(aryl)-3-chloropropenal compounds” (priority 1989, dated 1991)",
  "key": {"[1]": {"system": "human immunodeficiency virus (HIV)", "assay": "microbe, parasite or virus in culture", "method": "(§1) The assay basically involves the killing of T4 lymphocytes by HIV in cell cultures. Small amounts of HIV are added to cells, and at least two complete cycles of virus reproduction are necessary to obtain the required killing. Agents which interact with virions, cells, or virus gene-products to interfere with viral activities will protect cells from cytolysis. All tests are compared with a positive control done at the same time under identical conditions. The positive control in these experiments was AZT.\n(§2) Harvest experiments were conducted in which HIV infected cell cultures were post-treated with the compound of Example 1 at a number of concentrations. T4 lymphocytes (CEM cell line) are exposed to HIV at a virus to cell ratio approximately 0.05, and plated along with noninfected control cells in 96-well microtiter plates. 2,3-Bis-(3,4-dimethoxyphenyl)-3-chloropropenal was dissolved in dimethyl sulfoxide, then diluted 1:200 in cell culture medium. Further dilutions (half-log10) are prepared before adding to an equal volume of medium containing either infected or noninfected cells. Plates are incubated at 37° C. in a 5% carbon dioxide atmosphere for 6 days. Triphenyl tetrazolium chloride (1% weight by volume) is added to each well and cultures are further incubated to allow color development of viable cells. Individual wells are analyzed spectrophotometrically to quantitate color production and are viewed microscopically for detection of viable cells and confirmation of protective activity. Drug-treated virus-infected cells are compared with drug-treated noninfected cells and other appropriate controls (untreated infected and untreated noninfected cells, drug-containing wells without cells, etc.) on the same plate. Data are reviewed in comparison with other tests done at the same time, and a determination about antiviral activity is made.\n(§3) The solid line connecting the diamond symbols depicts the percentage of surviving HIV-infected cells treated with the present test sample at the indicated concentration relative to uninfected, untreated controls. This line represents the in-vitro anti-HIV activity of the sample. The dashed line connecting the square symbols depicts the percentage of surviving uninfected cells treated with the present compound relative to the same uninfected, untreated controls. This line represents the in-vitro growth inhibitory properties. The viral cytopathic effect in this experiment is indicated by a dotted reference line. This line show the extent of destruction of cells by the virus in the absence of treatment and is used as a quality control parameter. Values of this parameter […] 50% are considered acceptable in the current protocol. Reference line at 50% is depicted as alternating dots and dashes."}, "[2]": {"system": "T4 lymphocytes (CEM cell line)", "assay": "in-vitro growth inhibition / cytotoxicity in noninfected T4 lymphocytes (UNINFECTED CULTURE)", "type": "cell-based", "details": "for cytotoxicity to uninfected cells (in words): visual / microscopic; for Response (%), uninfected culture (surviving uninfected cells, % of uninfected untreated control): 6 days, Tables 1-3 = separate experiments, 8640 min", "method": "as §1, §2, §3\n(§4) Also, every attempt was made to reduce variability in the assay procedure set forth hereinabove and the values for EC50, IC50 and Therapeutic Index (TI) were determined within experimental limitations."}, "[3]": {"assay": "in-vitro growth inhibition / cytotoxicity in noninfected T4 lymphocytes (UNINFECTED CULTURE)", "type": "cell-based", "details": "human, cem cells, 6 days, Table 4, read-out: Response (%), uninfected culture (surviving uninfected cells, % of uninfected untreated control)", "method": "as §1, §2, §3, §4"}, "[4]": {"details": "Human immunodeficiency virus 1, CCRF-CEM, in Homo sapiens, 144 h, read-out: Response (%), infected culture (surviving HIV-infected cells, % of uninfected untreated control)"}},
  "note": "pEC50, pIC50: −log10 of the molar value. Several values for one entry are separate records, joined by “and”; a condition that tells them apart may be missing. Identical values can stand only once. Like-named read-outs stand apart in the source and are kept apart here.",
  "data": [
    {"smiles": "COc1ccc(C(Cl)=C(C=O)c2ccc(OC)cc2)cc1", "note": "[2,3-di-(4-methoxyphenyl)-3-chloro-acrylaldehyde, reference compound]", "values": [
      {"measurement": "anti-HIV activity in cell culture (in words)", "setting": "[1]", "value": "found unacceptable for further preclinical consideration"}
    ]},
    {"smiles": "Cc1cn([C@H]2C[C@H](N=[N+]=[N-])[C@@H](CO)O2)c(=O)[nH]c1=O", "note": "[AZT, azidothymidine, reference compound]", "values": [
      {"measurement": "cytotoxicity to uninfected cells (in words)", "setting": "[2]; uninfected culture", "value": "exhibited microscopic cytotoxicity to uninfected cells"}
    ]},
    {"smiles": "COc1ccc(C(Cl)=C(C=O)c2ccc(OC)c(OC)c2)cc1OC", "note": "[Example 1, 2,3-Bis-(3,4-Dimethoxyphenyl)-3-Chloropropenal]", "values": [
      {"measurement": "selectivity compared to AZT (in words)", "setting": "[1]", "value": "pronounced at the reported concentrations"},
      {"measurement": "selectivity, infected vs. uninfected cells (in words)", "setting": "[1]", "value": "selective, exhibiting toxicity to infected cells, yet not toxic towards normal cells or cells free of virus"},
      {"measurement": "viability at 0.0266 µg/mL", "setting": "[1]; [4]", "value": 6.9, "unit": "%"},
      {"measurement": "viability at 0.0733 µM", "setting": "[1]; [4]", "value": 18.5, "unit": "%"},
      {"measurement": "viability at 0.084 µg/mL", "setting": "[1]; [4]", "value": 6.8, "unit": "%"},
      {"measurement": "viability at 0.231 µM", "setting": "[1]; [4]", "value": 18, "unit": "%"},
      {"measurement": "viability at 0.265 µg/mL", "setting": "[1]; [4]", "value": 5.4, "unit": "%"},
      {"measurement": "viability at 0.266 µg/mL", "setting": "[1]; [4]", "value": 8.2, "unit": "%"},
      {"measurement": "viability at 0.732 µM", "setting": "[1]; [4]", "value": 18.8, "unit": "%"},
      {"measurement": "viability at 0.839 µg/mL", "setting": "[1]; [4]", "value": 7.2, "unit": "%"},
      {"measurement": "viability at 2.31 µM", "setting": "[1]; [4]", "value": 19.9, "unit": "%"},
      {"measurement": "viability at 2.65 µg/mL", "setting": "[1]; [4]", "value": 6.6, "unit": "%"},
      {"measurement": "viability at 7.31 µM", "setting": "[1]; [4]", "value": 60.2, "unit": "%"},
      {"measurement": "viability at 23.1 µM", "setting": "[1]; [4]", "value": 79.5, "unit": "%"},
      {"measurement": "viability at 26.4 µg/mL", "setting": "[1]; [4]", "value": 84.6, "unit": "%"},
      {"measurement": "viability at 73 µM", "setting": "[1]; [4]", "value": 76.2, "unit": "%"},
      {"measurement": "viability at 83.7 µg/mL", "setting": "[1]; [4]", "value": 94.8, "unit": "%"},
      {"measurement": "viability at 230 µM", "setting": "[1]; [4]", "value": 75.4, "unit": "%"},
      {"measurement": "EC50", "setting": "[1]; Human immunodeficiency virus 1, CCRF-CEM, read-out: EC50 (effective kill concentration for 50% of the experimental virus)", "value": "~15.6", "unit": "µg/mL"},
      {"measurement": "pEC50", "setting": "[1]; Human immunodeficiency virus 1, CCRF-CEM, read-out: EC50 (molar value)", "value": 5.26},
      {"measurement": "TI50 (therapeutic index)", "setting": "[1]; human, cem cells, 8640 min", "value": "> 4.22×10^+1"},
      {"measurement": "IC50", "setting": "[2]; Homo sapiens, CCRF-CEM, FIG. 1 / Table 1 experiment, uninfected CEM cells, read-out: IC50 (inhibition concentration required for 50% of cell growth)", "value": "> 83.7", "unit": "µg/mL"},
      {"measurement": "pIC50", "setting": "[2]; Homo sapiens, CCRF-CEM, FIG. 4 / Table 4 experiment, uninfected CEM cells, read-out: IC50 (molar value), cell growth", "value": "< 3.64"},
      {"measurement": "Response (%), uninfected culture (surviving uninfected cells, % of uninfected untreated control)", "setting": "[2]; dose 2.64 × 10^+1 μg/ml", "value": "112.4% and 109.3% and 115.9%"},
      {"measurement": "Response (%), uninfected culture (surviving uninfected cells, % of uninfected untreated control)", "setting": "[2]; dose 2.65 × 10^+0 μg/ml", "value": "103.5% and 106.3% and 108.3%"},
      {"measurement": "Response (%), uninfected culture (surviving uninfected cells, % of uninfected untreated control)", "setting": "[2]; dose 2.65 × 10^-1 μg/ml", "value": "102.7% and 99.7% and 103.4%"},
      {"measurement": "Response (%), uninfected culture (surviving uninfected cells, % of uninfected untreated control)", "setting": "[2]; dose 2.66 × 10^-2 μg/ml", "value": "99.2% and 104.4%"},
      {"measurement": "Response (%), uninfected culture (surviving uninfected cells, % of uninfected untreated control)", "setting": "[2]; dose 8.37 × 10^+1 μg/ml", "value": "112.2% and 91.9% and 114.3%"},
      {"measurement": "Response (%), uninfected culture (surviving uninfected cells, % of uninfected untreated control)", "setting": "[2]; dose 8.38 × 10^+0 μg/ml", "value": "106.0% and 103.1% and 113.1%"},
      {"measurement": "Response (%), uninfected culture (surviving uninfected cells, % of uninfected untreated control)", "setting": "[2]; dose 8.39 × 10^-1 μg/ml", "value": "105.6% and 101.2% and 107.0%"},
      {"measurement": "Response (%), uninfected culture (surviving uninfected cells, % of uninfected untreated control)", "setting": "[2]; dose 8.40 × 10^-2 μg/ml", "value": "104.5% and 103.1% and 99.6%"},
      {"measurement": "cell growth in uninfected culture (in words)", "setting": "[2]; uninfected culture, Tables 1-4", "value": "cell growth actually increased in most of these test results"},
      {"measurement": "cytotoxicity to uninfected cells (in words)", "setting": "[2]; uninfected culture", "value": "no significant visual or microscopic cytotoxicity was observed in the uninfected culture"},
      {"measurement": "viability at 144 h, 230 µM", "setting": "[3]; dose 2.30 × 10^-4 Molar", "value": 77.3, "unit": "%"},
      {"measurement": "viability at 144 h, 23.1 µM", "setting": "[3]; dose 2.31 × 10^-5 Molar", "value": 90.2, "unit": "%"},
      {"measurement": "viability at 144 h, 2.31 µM", "setting": "[3]; dose 2.31 × 10^-6 Molar", "value": 92.7, "unit": "%"},
      {"measurement": "viability at 144 h, 0.231 µM", "setting": "[3]; dose 2.31 × 10^-7 Molar", "value": 104, "unit": "%"},
      {"measurement": "viability at 144 h, 73 µM", "setting": "[3]; dose 7.30 × 10^-5 Molar", "value": 83.5, "unit": "%"},
      {"measurement": "viability at 144 h, 7.31 µM", "setting": "[3]; dose 7.31 × 10^-6 Molar", "value": 94.3, "unit": "%"},
      {"measurement": "viability at 144 h, 0.732 µM", "setting": "[3]; dose 7.32 × 10^-7 Molar", "value": 96.5, "unit": "%"},
      {"measurement": "viability at 144 h, 0.0733 µM", "setting": "[3]; dose 7.33 × 10^-8 Molar", "value": 101, "unit": "%"}
    ]},
    {"smiles": "O=CC(=C(Cl)c1ccc2c(c1)OCO2)c1ccc2c(c1)OCO2", "note": "[Example 3, 2,3-Bis-(3,4-Methylenedioxyphenyl)-3-Chloropropenal]", "values": [
      {"measurement": "anti-HIV activity in cell culture (in words)", "setting": "[1]", "value": "produced mixed results under the experimental assay procedure reported hereinabove, the results clearly indicated antiviral activity"},
      {"measurement": "antiviral activity relative to 2,3-bis-(3,4-dimethoxyphenyl)-3-chloropropenal (in words)", "setting": "[1]", "value": "significantly less than that of the structurally analogous test compound"}
    ]}
  ]
}
